Laboratory results reported in patent US4716109A, “Immunoassay” (Boots-Celltech Diagnostics Limited, priority 1983, dated 1987).
Numbered stars: 1 amine (or outer) side, 2 acyl side, 3 side chain; on linkers, the order of the positions; unused ones are H or OH. Square brackets hold non-standard residues; d marks the D form. Peptide text beside a SMILES is read from it. * marks the point of attachment. X3 = CC(=O)[C@H]1CC[C@H]2[C@@H]3CCC4=CC(=O)CC[C@]4(C)[C@H]3[C@H](OCC(=O)*)C[C@]12C; X1 = CC(=O)C1CCC2C3CCC4=CC(=O)CCC4(C)C3C(OC3OC(C(=O)*)C(O)C(O)C3O)CC12C; Sta = CC(C)C[C@H](N)[C@@H](O)CC(=O)O; X2 = CC(C)CC(N[*:1])C(O)CC(=O)[*:2]

How the values were obtained:
[1] = test system: Polyclonal antiserum to progesterone HPS 53IIb; assay: Radioimmunoassay for immunoreactivity with polyclonal antiserum HPS 53IIb; assay type: binding, sheep
Excerpt: (§1) Polyclonal antisera to progesterone were obtained from the Milk Marketing Board, Veterinary Laboratories, Cleeve House, Lower Wick, Worcester, England and from Guildhay Antisera, Division of Clinical Biochemistry, Department of Biochemistry, University of Surrey, Guildford, Surrey, England. The antiserum from the Milk Marketing Board had been raised against the immunogen progesterone-11α -hemisuccinyl-bovine serum albumin and the Guildhay antiserum raised against progesterone-11α -hemisuccinyl-ovalbumin.
(§2) A radioimmunoassay employing tritiated progesterone and dextran coated charcoal separation of bound and free progesterone was used to assess the immunoreactivity of progesterone derivatives and progesterone-inhibitor conjugates with the monoclonal and polyclonal antisera, by the method of R. B. Heap, R. J. Holdsworth, J. E. Gadsby, J. A. Laing and D. E. Walters, Brit. Vet. J. 1976, 132, 445-464.
Dilutions of chymosin in assay buffer were prepared at 1/1000, 1/1100, 1/1210, 1/1331, 1/1464, 1/1611, 1/1772, 1/1949. 30 μl of each diluted enzyme solution was used in each microtiter well. A solution of the progesterone-inhibitor designated P4SP2, at a concentration of 40 pmol/ml was prepared; 25 μl (1 pmol) being used in each microtiter well. […]

[2] = test system: Monoclonal progesterone antibody 11P12; assay type: binding; details: radioimmunoassay
Excerpt: Monoclonal progesterone antibody was obtained from Dr. Wang of the Imperial Cancer Research Fund Laboratories, Lincolns Inn, London, England. It had been raised against the immunogen progesterone-11 -hemisuccinyl-bovine serum albumin according to the method of V. E. Fantl, D. Y. Wang and R. E. Knyba, J. Steroid Biochem, 1982, 17, 125-130. The monoclonal antibody of choice for use in the specific assay described below is designated 11P12 in the above mentioned publication.
as §2

[3] = test system: Polyclonal antiserum to progesterone (18/3); assay type: binding; details: radioimmunoassay, polyclonal antiserum 18/3
Excerpt: as §1, §2

Chymosin = molecular target: T1, Chymosin (Bos taurus, UniProt P00794); assay: Enzyme inhibition with chromogenic peptide substrate; assay type: biochemical, calf; details: pH 6.0
T1 construct: purchased Sigma Chemical Co. Ltd., or from recombinant prochymosin (E. coli) supplied by Celltech Ltd; host or cells: calf enzyme, or E. coli for the recombinant prochymosin
T1 sequence (P00794 59-381): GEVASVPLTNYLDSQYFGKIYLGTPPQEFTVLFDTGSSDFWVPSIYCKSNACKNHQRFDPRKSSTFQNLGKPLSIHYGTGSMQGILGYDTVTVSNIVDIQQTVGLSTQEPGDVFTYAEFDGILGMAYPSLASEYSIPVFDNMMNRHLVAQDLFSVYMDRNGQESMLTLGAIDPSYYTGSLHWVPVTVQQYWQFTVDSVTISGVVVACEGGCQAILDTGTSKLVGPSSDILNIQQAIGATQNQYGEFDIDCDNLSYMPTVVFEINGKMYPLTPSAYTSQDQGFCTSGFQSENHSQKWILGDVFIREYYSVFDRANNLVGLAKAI
Excerpt: Enzyme inhibition data was obtained using synthetic peptide substrates containing a chromophoric nitrophenylalanine residue in the position of the scissile bond so that hydroysis can be followed spectrophotometrically. Hydrolysis was followed at 300 nm and the substrate can be used at any pH value (usually between 2-6) at which the enzyme is active.

[4] = molecular target: Endothia Parasitica Protease (Cryphonectria parasitica, UniProt P11838); assay: as above; assay type: biochemical
Sequence of Endothia Parasitica Protease (P11838 90-419): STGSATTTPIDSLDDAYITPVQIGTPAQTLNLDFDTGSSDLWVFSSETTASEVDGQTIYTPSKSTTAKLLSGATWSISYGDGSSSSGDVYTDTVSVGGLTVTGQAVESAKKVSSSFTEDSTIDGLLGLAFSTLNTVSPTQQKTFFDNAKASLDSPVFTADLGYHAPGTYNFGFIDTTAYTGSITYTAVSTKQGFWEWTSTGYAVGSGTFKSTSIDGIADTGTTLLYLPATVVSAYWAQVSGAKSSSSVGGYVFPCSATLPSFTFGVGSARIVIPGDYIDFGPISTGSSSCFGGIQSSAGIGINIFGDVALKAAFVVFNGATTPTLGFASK
Excerpt: Enzyme inhibition data was obtained using synthetic peptide substrates containing a chromophoric nitrophenylalanine residue in the position of the scissile bond so that hydroysis can be followed spectrophotometrically. Hydrolysis was followed at 300 nm and the substrate can be used at any pH value (usually between 2-6) at which the enzyme is active. Kinetic parameters for the hydrolysis of a chromogenic peptide substrate by different types of mammalian aspartic proteinases have been reported J. Kay, M. J. Valler and B. M. Dunn, Naturally-occurring inhibitors of Aspartic Proteinases in Proteinase Inhibitors; N. Katunuma, H. Umezawa and H. Holzer Eds., 1983 Springer-Verlag, Berlin (in press).

[5] = molecular target: T2, chymosin milk-clotting activity (Bos taurus, UniProt P00794); assay: Milk-clotting assay in microtiter plates; assay type: biochemical, calf
T2 construct: purchased Sigma Chemical Co. Ltd., or from recombinant prochymosin (E. coli) supplied by Celltech Ltd; host or cells: calf enzyme, or E. coli for the recombinant prochymosin
T2 sequence (P00794 59-381): as the sequence (P00794 59-381) above
Protocol: Milk-clotting assays were carried out in the wells of microtiter plates. In each assay, after a suitable reaction time, the microtiter plate was inverted. Where clotting occurred, the clots remained in the wells of the plate, and where there was no clotting, the contents of the wells were decanted.
The general assay procedure was as follows:
20 μl of assay buffer containing 0.2% bovine serum albumin was pipetted into the wells of a microtiter plate. This was followed by 25 μl of assay buffer alone, or assay buffer containing the desired concentration of progesterone-inhibitor conjugate followed by 25 μl of assay buffer alone, or assay buffer containing the desired concentration of progesterone antibody. Then 30 μl of assay buffer containing the desired concentration of chymosin was added. This was followed by 100 μl of a milk substrate solution. The microtiter plate containing the assay mixture was placed in an incubator at 37° C. for 1 hour. At the end of this time the plate was inverted over a sink and tapped very lightly a few times, and then placed inverted on some tissue paper. The presence of clots was readily observed and either scored on a microtiter plate diagram or alternatively the inverted plate was photocopied against a dark background.
Dilutions of chymosin in assay buffer were prepared at 1/1000, 1/1100, 1/1210, 1/1331, 1/1464, 1/1611, 1/1772, 1/1949. 30 μl of each diluted enzyme solution was used in each microtiter well. A solution of the progesterone-inhibitor designated P4SP2, at a concentration of 40 pmol/ml was prepared; 25 μl (1 pmol) being used in each microtiter well. Dilutions of sheep polyclonal antiserum HPS 53-IIb (supplied by Guildhay Antisera) were prepared at 1/50, 1/100 and 1/200; 25 ul of each dilution being used in each microtiter well.
A 1/50 dilution of antibody to progesterone (HPS53 IIb--Guildhay antisera) was used, together with a fixed concentration of progesterone-inhibitor conjugate P4SP2 (100 pmol/ml). The final concentration of conjugate was 1 pmol/well. Progesterone was dissolved in assay buffer at a concentration of 0.5 nmol/ml, to give a final concentration of 7.5 pmol/well. Incubation mixtures containing 0.571 ml of assay buffer containing 0.2% BSA, 0.714 ml of dilute antibody, 0.429 ml of progesterone in assay buffer and 0.286 ml of inhibitor conjugate were prepared. Control incubates were also prepared in which antibody, progesterone, or both were replaced by equivalent volumes of assay buffer. A similar series of incubation mixtures in which progesterone-inhibitor conjugate was replaced by assay buffer was also prepared. These mixtures were incubated at 4° C. for 2 hours. At the end of the incubation, 70 μl of incubate was transferred to each well in duplicate rows on the microtitre plate. Dilution of a 1 mg/ml solution of chymosin in assay buffer were prepared as follows: 1/1210 1/1331, 1/1464, 1/1611, 1/1772, 1/1949, 1/2144, 1/2358, 1/2594, 1/2835, 1/3138, 1/3452. 30 μl of each dilution was added to each well in a column of the microtitre plates. These dilutions gave a final concentration of 0.71, 0.64, 0.58, 0.53, 0.48, 0.44, 0.40, 0.36, 0.33, 0.30, 0.27 and 0.25 pmol/well. 100 ul of milk substrate was added to each well and the plates were incubated for one hour at 37° C. before checking for clotting. In the absence of progesterone, antibody and progesterone-inhibitor conjugate, the limiting concentration of chymosin necessary for clotting is 0.36 pmol/well. […]

[6] = test system: Polyclonal antiserum to progesterone HPS 645IIc; assay: Radioimmunoassay for immunoreactivity with polyclonal antiserum HPS 645IIc; assay type: binding
Excerpt: as §1, §2

[7] = Endothia Parasitica Protease, pH 3.1

Compound	Immunoreactivity Monoclonal 11P12 [2] [%]	Immunoreactivity Polyclonal (18/3) [3] [%]	Ki (Chymosin) [nM]	Ki ([4]; Endothia, pH 6.0) [nM]	also measured
CCC(C)C(NC(=O)C(C)NC(=O)CC(O)C(CC(C)C)NC(=O)C(CO)NC(=O)C(CC(C)C)NC(=O)C1OC(OC2CC3(C)C(C(C)=O)CCC3C3CCC4=CC(=O)CCC4(C)C23)C(O)C(O)C1O)C(=O)N1CCCC1C(=O)N1CCCC1C(=O)NC(CCCCN)C(=O)NC(CCCCN)C(=O)O (stereo not shown) [VI] (X1-LS[X2]AIPPKK-OH; configuration not given here)	3.8	16.4	20	470	Immunoreactivity Polyclonal (HPS 53IIb) [1]: 34%; milk clotting with conjugate in the presence of antibody ([5]; 1 pmol/well conjugate plus 1/50 antibody HPS53 IIb (FIG. 3)): clotting is restored; milk clotting with conjugate in the presence of antibody and free progesterone ([5]; 1 pmol/well conjugate, 1/50 antibody HPS53 IIb, progesterone 7.5 pmol/well (FIG. 3)): antibody restoration of clotting activity was impaired; modulation by antibody of the conjugate's inhibition of chymosin milk clotting activity ([5]; 1 pmol/well conjugate, antiserum HPS 53-IIb at 1/50, 1/100, 1/200, chymosin dilutions 1/1000-1/1949 (FIG. 1)): can be modulated by the addition of antibody; chymosin required to give a visible clot (limiting concentration of chymosin necessary for clotting) ([5]; 1 pmol/well of the inhibitor conjugate, no antibody, no progesterone, 1 h 37° C., control without additions 0.36 pmol/well): 0.44 pmol/well
CC(=O)[C@H]1CC[C@H]2[C@@H]3CCC4=CC(=O)CC[C@]4(C)[C@H]3CC[C@]12C [Progesterone, reference compound]	–	–	–	–	limiting concentration of chymosin necessary for clotting ([5]; progesterone alone, 7.5 pmol/well, no conjugate, compared with control 0.36 pmol/well): remains the same
CC(=O)[C@H]1CC[C@H]2[C@@H]3CCC4=CC(=O)CC[C@]4(C)[C@H]3[C@H](OCC(=O)O)C[C@]12C [II, Progesterone11α-carboxymethylether, reference compound]	77.4	–	–	–	–
Hisleuserphestatalaileproprolyslys [III]	–	–	–	–	Ki [4, 7]: 10 nM
CCC(C)C(NC(=O)C(C)NC(=O)CC(O)C(CC(C)C)NC(=O)C(CO)NC(=O)C(CC(C)C)NC(=O)C(Cc1c[nH]cn1)NC(=O)C1OC(OC2CC3(C)C(C(C)=O)CCC3C3CCC4=CC(=O)CCC4(C)C23)C(O)C(O)C1O)C(=O)N1CCCC1C(=O)N1CCCC1C(=O)NC(CCCCN)C(=O)NC(CCCCN)C(=O)O (stereo not shown) [V] (X1-HLS[X2]AIPPKK-OH; configuration not given here)	31.8	9.5	52	40	–
CC(=O)[C@H]1CC[C@H]2[C@@H]3CCC4=CC(=O)CC[C@]4(C)[C@H]3[C@H](OC3O[C@H](C(=O)O)[C@@H](O)[C@H](O)[C@H]3O)C[C@]12C (stereo partly drawn) [I, Progesterone11α-glucuronide, reference compound]	151	92.1	–	–	–
Achisleuserstualaileproprolyslys [IV]	–	–	–	–	Ki [4, 7]: 6 nM
CC[C@H](C)[C@H](NC(=O)[C@H](C)NC(=O)C[C@H](O)[C@H](CC(C)C)NC(=O)[C@H](CO)NC(=O)[C@H](CC(C)C)NC(=O)CO[C@@H]1C[C@]2(C)[C@@H](C(C)=O)CC[C@H]2[C@@H]2CCC3=CC(=O)CC[C@]3(C)[C@H]21)C(=O)N1CCC[C@H]1C(=O)N1CCC[C@H]1C(=O)N[C@@H](CCCCN)C(=O)N[C@@H](CCCCN)C(=O)O [VII] (X3-LS[Sta]AIPPKK-OH)	17.1	33.6	6.7	26	Immunoreactivity Polyclonal (HPS 53IIb) [1]: 42.1%; Immunoreactivity Polyclonal (HPS 645IIc) [6]: 17.4%
